In data set [1] the test system is Bacillus subtilis ATCC 6633. Briefly: Bioassay by the cylinder method. The class given is cell-based. The protocol: The bioassay by the cylinder method was carried out using 7β-[2-(2-imino-4-thiazolin-4-yl)acetamido]-3-[1-[2-(N,N-dimethylamino)ethyl]-1H-tetrazol-5-yl]thiomethyl-3-cephem-4-carboxylic acid .2H Cl salt as the standard product against Bacillus subtilis ATCC 6633 as the assay microorganism.
The potency of the anhydrous zwitter ion compound was 1000 mcg/ml. The calculated potency of a sample containing 2 moles of HCl per mole of the zwitter ion compound and none of non-bonding hydrochloric acid, water, residual solvent or other impurity is 878 mcg/ml.

A short description of data set [2]: Storage stability in sealed vial at 50° C. for 4 weeks, % residue. The format is physicochemical. The conditions noted are these: 40320 min. The protocol:
One sample each of the following compounds was stored in a sealed vial at 50° C. for 4 weeks.
The sodium salt, zwitter ion, and monohydrochloride of 7β-[2-(2-imino-4-thiazoline-4-yl)acetamido]-3-[1-[2-(N,N-dimethylamino)ethyl]-1H-tetrazol-5-yl]thiomethyl-3-cephem-4-carboxylic acid, as well as the lyophilized powders of said acid dihydrochloride (amorphous powders, Example 4-(2)), the crystals of said acid dihydrochloride (Example 1-(3)) and the non-crystalline powders obtained by drying said dihydrochloride crystals (Example 1-(4)) as obtained in accordance with this invention.
The percent residue figures are as follows.

Data set [3] can be described thus: Stability in storage / shelf-life (statement). The class given is physicochemical.
In data set [4] the test system is Proteus vulgaris IFO 3988. Nature of the data set: Antibacterial spectrum (agar dilution), MIC. The class given is cell-based. As to conditions: IFO3988, on anhydrate basis, P. vulgaris IFO 3988. The source says:
(§1) The antibacterial potency (in terms of MIC) and toxicity of the contemplated compound (I) on anhydrate basis
(§2) (1) Antibacterial spectrum (agar dilution)

The subject of another data set is Escherichia coli O-111. Briefly: Antibacterial spectrum (agar dilution), MIC. As to conditions: O111, on anhydrate basis, E. coli O-111. The format is cell-based.
Description: as §1, §2

The test system of another data set is Klebsiella pneumoniae DT. Nature of the data set: Antibacterial spectrum (agar dilution), MIC. The class given is cell-based. As to conditions: on anhydrate basis, K. pneumoniae DT.
Description: as §1, §2

The subject of data set [5] is Staphylococcus aureus 1840. Briefly: Antibacterial spectrum (agar dilution), MIC. The format is cell-based. The conditions noted are these: on anhydrate basis, S. aureus 1840.
Description: as §1, §2

Data set [6] deals with Escherichia coli NIHJ JC-2. Briefly: Antibacterial spectrum (agar dilution), MIC. The format is cell-based. As to conditions: NIHJJC2, on anhydrate basis, E. coli NIHJ JC-2.
Description: as §1, §2

A further data set concerns Escherichia coli T-7. Briefly: Antibacterial spectrum (agar dilution), MIC. The format is cell-based. As to conditions: T7, on anhydrate basis, E. coli T-7.
Description: as §1, §2

For data set [7], the system named is Proteus morganii IFO 3848. Briefly: Antibacterial spectrum (agar dilution), MIC. The class given is cell-based. As to conditions: Morganella morganii, IFO3848, on anhydrate basis, P. morganii IFO 3848.
Description: as §1, §2

Data set [8] relates to Staphylococcus aureus FDA 209 P. Briefly: Antibacterial spectrum (agar dilution), MIC. The class given is cell-based. As to conditions: FDA209, on anhydrate basis, S. aureus FDA 209 P.
Description: as §1, §2

Data set [9] is described as follows: Acute toxicity (mouse, intraperitoneal). As to conditions: in vivo, ip, 1:1 (by mole) mixture of compound (I) and sodium carbonate, anhydrate basis, read-out: CD50 (the source's name).
Description: as §1
(2) Acute toxicity (mouse, intraperitoneal)
The acute toxicity data relates to a 1:1 (by mole) mixture of contemplated compound (I) and sodium carbonate.

For data set [10] the following is noted: West German Patent Application Laid Open No. 2461478; cited from earlier work.
Data set [11] can be described thus: Water solubility (statement). The format is physicochemical.

SMILES strings stand for the structures. Values after ≈ are worked out from the molar mass of the structure shown. Counter-ions that a name gives are not always drawn. Like-named read-outs stand apart in the source and are kept apart here. Where only a bound is given, the exact number is not on record here.

As to `CN(C)CCn1nnnc1SCC1=C(C(=O)O)N2C(=O)[C@@H](NC(=O)Cc3csc(=N)[nH]3)[C@H]2SC1` [Example 7-(3), 5β-[2-(2-imino-4-thiazolin-4-yl)acetamido]-3-[1-[2-(N,N-dimethylamino)ethyl]-1H-tetrazol-5-yl]thiomethyl-3-cephem-4-carboxylic acid], in data set [1], the “Bioassay (potency)” value is 865 mg/L.
`CN(C)CCn1nnnc1SCC1=C(C(=O)O)N2C(=O)[C@@H](NC(=O)Cc3csc(N)n3)[C@H]2SC1` [Example 4-(2), 7β-[2-(2-imino-4-thiazolin-4-yl)acetamido]-3-[1-[2-(N,N-dimethylamino)ethyl]-1H-tetrazol-5-yl]thiomethyl-3-cephem-4-carboxylic acid]: the “% Residue” value in data set [2] worked out at 86%.
`CN(C)CCn1nnnc1SCC1=C(C(=O)O)N2C(=O)[C@@H](NC(=O)Cc3csc(N)n3)[C@H]2SC1` [Example 1-(3), 7β-[2-(2-imino-4-thiazolin-4-yl)acetamido]-3-[1-[2-(N,N-dimethylamino)ethyl]-1H-tetrazol-5-yl]thiomethyl-3-cephem-4-carboxylic acid]: the “% Residue” value in [2] is given as 99%.
On to `CN(C)CCn1nnnc1SCC1=C(C(=O)O)N2C(=O)[C@@H](NC(=O)Cc3csc(N)n3)[C@H]2SC1` [compound (I)], for which, in data set [3], the stability in storage result is listed as “highly stable in storage”. The MIC in data set [4] stood at 1.56 mg/L (≈ 2.97 µM); against Escherichia coli O-111, 0.05 mg/L (≈ 0.0951 µM); in the data set with Klebsiella pneumoniae DT, 0.1 mg/L (≈ 0.19 µM); in data set [5] it was 0.78 mg/L (≈ 1.48 µM); in data set [6], 0.2 mg/L (≈ 0.38 µM); in the data set on Escherichia coli T-7, 1.56 mg/L (≈ 2.97 µM). Moreover, the MIC in data set [7] and in data set [8] was 0.39 mg/L (≈ 0.742 µM) in each case. Further, the LD50 in [9] was no less than 20000 mg/kg.
Take `CN(C)CCn1nnnc1SCC1=C(C(=O)O)N2C(=O)[C@@H](NC(=O)Cc3csc(N)n3)[C@H]2SC1` [Sodium salt (lyophilizate), 7β-[2-(2-imino-4-thiazoline-4-yl)acetamido]-3-[1-[2-(N,N-dimethylamino)ethyl]-1H-tetrazol-5-yl]thiomethyl-3-cephem-4-carboxylic acid, reference compound]: the “% Residue” value in data set [2] stood at 76%.
`CN(C)CCn1nnnc1SCC1=C(C(=O)O)N2C(=O)[C@@H](NC(=O)Cc3csc(N)n3)[C@H]2SC1` [compound (II), 7β-[2-(2-imino-4-thiazolin-4-yl)acetamido]-3-[1-[2-(N,N-dimethylamino)ethyl]-1H-tetrazol-5-yl]thiomethyl-3-cephem-4-carboxylic acid, reference compound]: the antibiotic activity entry in [10] is reported as “excellent antibiotic activity”. Moreover, the “stability on long shelf-life” value in data set [3] (free acid form (zwitter ion) or salt with a base) is given as “unstable in the free acid form (zwitter ion) or its salt with a base”. Further, the “Bioassay (potency)” value in data set [1] (listed as anhydrous zwitter ion compound) was found to be 1000 mg/L. Further, the water solubility entry in data set [11] is given as “high water solubility”. In addition, the “% Residue” value in data set [2] (listed as Zwitter ion(lyophilizate)) is recorded as 54%.
For the molecule `CN(C)CCn1nnnc1SCC1=C(C(=O)O)N2C(=O)[C@@H](NC(=O)Cc3csc(N)n3)[C@H]2SC1` [Example 1-(4), 7β-[2-(2-imino-4-thiazolin-4-yl)acetamido]-3-[1-[2-(N,N-dimethylamino)ethyl]-1H-tetrazol-5-yl]thiomethyl-3-cephem-4-carboxylic acid], the “% Residue” value in [2] is listed as 98%.
`CN(C)CCn1nnnc1SCC1=C(C(=O)O)N2C(=O)[C@@H](NC(=O)Cc3csc(N)n3)[C@H]2SC1` [Monohydrochloride (lyophilizate), 7β-[2-(2-imino-4-thiazoline-4-yl)acetamido]-3-[1-[2-(N,N-dimethylamino)ethyl]-1H-tetrazol-5-yl]thiomethyl-3-cephem-4-carboxylic acid, reference compound]: the “% Residue” value in data set [2] stood at 73%.

Values taken from US4146710A, “Solid cephalosporin salt” (Takeda Chemical Industries, Ltd., priority 1976, dated 1979).
